Source: EP0937460A2, “Use of an antidiarrheal for the manufacture of a medicament for the treatment of inflammatory conditions” (Adolor Corporation, priority 1994, dated 1995)
Read-outs that look alike come from different tables or passages of the source.

Columns and labels:
TNF production [1] = assay: Inhibition of LPS-stimulated TNF production in the human monocytic cell line THP-1 (ELISA); format: cell-based; conditions: for activity at 10 µM / inhibition at 10 µM: Homo sapiens; for activity at 10 µM: read-out: TNF LEVEL % Control (LPS alone), Ave. ± S.D.
Procedure: Cultures were maintained by the addition of fresh growth medium to a T-75 or T-150 flask of cells in suspension, or by pelleting the cells and re-suspending them in the appropriate volume of fresh medium. Maximum cell density was 1.0 x 10^6 cells per mL and cultures were seeded at a minimum density of 0.2 x 10^6 cells per ml.
(§1) THP-1 cells were plated into 24-well plates at a density of 1.0 x 10^6 cells per mL in 0.5 mL medium per well. […] For measurement of IL-1α and IL-1β production, THP-1 cells were incubated with 500 ng/mL or 50 ng/mL LPS and incubated for 16 hours. Levels of secreted cytokine were measured in cell supernatants as for TNF. Cell-associated species were measured in cell lysates which were prepared by repetitive freeze-thawing of cells. For in vitro screening, drugs at 10 µM concentration were co-administered with LPS. […] Drug effects on cell viability were assessed by the MTT assay. […] Water-soluble drugs were dissolved in aqueous solutions such as RPMI or deionized H20. The final concentration of DMSO in the incubation medium was at or below 0.01% and that of ethanol was at or below 0. 1%. The effect on cell viability was evaluated by the MTT assay.

TNF production [2] = assay: Inhibition of LPS-stimulated TNF production in the mouse macrophage line RAW 264.7 (ELISA); format: cell-based; conditions: RAW cells; for activity at 10 µM: Mus musculus, RAW264.7, 6 h, DRUG [10 µM], LPS at 10 ng/mL, read-out: TNF LEVEL % Control (LPS alone), Ave. ± S.D.
Procedure: Cells were passaged at confluence by scraping and routinely plated at a density of 0.25 x 10^6 and 0.5 x 10^6 cells per T-75 and T-150, respectively.
Typically, RAW cells were plated at 0.25 x 10^6 cells per well of a 24-well plate, in 0.5 mL media per well on the day prior to experimentation. […] 1%. Drugs were co-administered with the stimulant, LPS. After a 6-hr incubation period with LPS ± drug (n = 3-4), the media from the experimental wells was harvested, the cells were removed by microcentrifugation, and the media assayed for TNF by ELISA. Drugs were screened at 10 µM for their ability to alter TNF production by cells stimulated with 1 µg/mL or 10 ng/mL LPS. Dexamethasone, an anti-inflammatory corticosteroid, served as the reference for inhibition of the LPS response.

TNF production [3] = assay: Inhibition of TPA-stimulated TNF production in human epidermal keratinocytes (ELISA); format: cell-based; conditions: Homo sapiens, epidermal keratinocytes; HEK cells; DRUG [10 µM]; stimulation by TPA 10 ng/mL; read-out: TNF LEVEL % Control (LPS alone); Ave. ± S.D.
THP-1 cells = assay: MTT assay of THP-1 cell viability
Procedure: as §1

hairless mice = assay: DNCB-induced contact hypersensitivity in hairless mice, ear swelling; format: in vivo, mouse
Procedure: Similar to what has been commonly reported by other investigators, the specific protocol used in these studies involved the application of DNCB (in an acetone:olive oil 4:1 vehicle) to the skin on the posterior portion of the back of hairless mice. Five days later, DNCB was applied to the dorsal surface of the ears. At the indicated time point, the mice were euthanized, ear thickness was measured, and the samples were processed for either RNA extraction, protein analysis, or histology.
Experiments were carried out in an effort to inhibit the DNCB-induced immune reaction with various drugs. […] The left ear was similarly treated with vehicle.
The ability of amiloride to suppress DNCB-induced ear swelling was also examined. In these experiments, mice were sensitized with DNCB, and, five days later, amiloride (2% w/v in 70% propylene glycol: 30% ethanol) was applied to the right ear and vehicle to the left ear 30 minutes and 8 hours after DNCB challenge.

IL-1β = assay: LPS-stimulated IL-1β production by THP-1 cells; format: cell-based, human
Procedure: as §1

IL-1α = assay: LPS-stimulated IL-1α production by THP-1 cells; format: cell-based, human
Procedure: as §1

humans = assay: Skin inflammation models in humans (2% sodium laurel sulfate or 5% nickel sulfate, 24 hour patch test); format: in vivo
Procedure: Human skin inflammation was elicited by either 2% sodium laurel sulfate in normal volunteers (irritant contact dermatitis) or by 5% nickel sulfate in nickel-sensitive individuals (allergic contact dermatitis) using a 24 hour patch test. Following the elicitation, either topical verapamil formulation or a placebo formulation was applied three times daily for two consecutive days on two respective sites. At the end of the two-day topical treatment, the degree of skin inflammation (i.e., erythema, edema and blister formation was assessed by a trained dermatologist. Skin biopsies were taken from the placebo and the active sites and analyzed for skin thickness and TNF levels using immunohistochemical techniques.

mice = assay: Skin inflammation induced by 2% sodium lauryl sulfate (SLS) in mice; format: in vivo; conditions: 2% SLS with near saturated verapamil
Procedure: Following the 24 hour exposure, the Hilltop chambers were removed and, after 18 hours, skin thickness readings were taken. […] Table

KC mRNA = assay: TPA-induced KC mRNA expression in hairless mouse skin (RT-PCR); conditions: verapamil 4% w/v topical; 3 hour; one of three mice; p = 0.04
TNF mRNA = assay: TPA-induced TNF mRNA expression in hairless mouse skin (RT-PCR); format: in vivo; conditions: verapamil 4% w/v in ethanol, topical; 3 hour time point; p < 0.01

## N=C(N)NC(=O)c1nc(Cl)c(N)nc1N [Amiloride, amiloride]
TNF production [1]; 6 h, THP-1 cells, DRUG [10 µM], LPS 1 µg/mL
  activity at 10 µM: 56 ± 15%
TNF production [1]; LPS-stimulated THP-1 cells, drug 10 µM, read-out: inhibition of TNF production
  inhibition at 10 µM: 40%
TNF production [1]; LPS-stimulated THP-1 cells, 10 µM
  effectiveness against LPS-stimulated TNF production (in words): comparatively more effective
TNF production [1]; LPS-stimulated TNF production, THP-1 cells
  IC50 value (50% of the maximal inhibition, as defined by effects at 10 µM): within the same range
TNF production [2]
  activity at 10 µM: 75 ± 25%
TNF production [2]; drug 10 µM
  effectiveness against LPS-stimulated TNF production (in words): moderately effective
TNF production [3]
  activity at 10 µM: ≥ 100%
THP-1 cells
  THP-1 cell viability (MTT assay): did not impact
Hairless mice; DNCB + amiloride 2% w/v topical (DNCB alone 135%), p < 0.002
  ear thickness, % of pre-challenge values: 113%
IL-1β; THP-1 cells, 10 µM
  level of cell-associated and secreted IL-1β (in words): reduce the level
IL-1α; THP-1 cells, 10 µM
  level of cell-associated and secreted IL-1α (in words): reduce the level

## COc1ccc(CCN(C)CCCC(C#N)(c2ccc(OC)c(OC)c2)C(C)C)cc1OC (racemic) [(±)-Verapamil, verapamil]
TNF production [1]; THP-1, 6 h
  activity at 10 µM: 46 ± 9%
TNF production [1]; THP-1, read-out: inhibition of TNF production
  inhibition at 10 µM: 54%
humans; challenged with 2% sodium laurel sulfate
  patients in whom dermatitis resolved faster on treated sites: 2 out of 3
humans; topical verapamil three times daily for two days
  patients with skin thickness less on treated sites than placebo sites: 4 out of 6
humans; topical verapamil three times daily for two days, immunohistochemistry
  patients with less TNF in the skin biopsies than placebo sites: 4 out of 6
TNF production [2]
  activity at 10 µM: 36 ± 1%
mice; 24 hours occlusion, read 18 hours after removal (2% SLS alone 1.23, untreated 0.59)
  Skin Thickness (mm, n = 4): 0.65 ± 0.09 mm
mice; 24 hours under occlusion
  Visual Observation: Normal
THP-1 cells; highest dose tested
  THP-1 cell viability (MTT assay): did not impact
Hairless mice; verapamil 4% w/v topical, initial experiment
  swelling of the ear after DNCB challenge: some suppression
Hairless mice; verapamil 5% w/v topical, n = 6, repeated experiment
  ear swelling after DNCB challenge: significantly reduced
KC mRNA
  KC mRNA levels: significant suppression
IL-1β; Homo sapiens, THP-1, 16 h, read-out: inhibition of IL-1β levels
  inhibition at 0.05 µg/mL: ~33%
IL-1α; Homo sapiens, THP-1, 16 h, read-out: inhibition of IL-1α levels
  inhibition at 0.05 µg/mL: 40 to 50%
TNF mRNA
  skin TNF mRNA levels compared to TPA alone: significant reduction
